Results reported in patent US7267964B2, “DNA molecules encoding ligand gated ion channels from Dermacentor variabilis” (priority 2000, dated 2007).

What was measured:
Format in all cases: cell-based, Dermacentor variabilis
DvLGIC/GluCl 1 = assay: Two-microelectrode voltage clamp of Xenopus oocytes injected with DvLGIC/GluCl 1 RNA
Excerpt: (§1) Synthesis of in vitro transcribed capped RNA—A PCR strategy was used to add the T7 promoter upstream of the initiating methionine (ATG) and a polyA^+ tail following the stop codon (TAG) of the open reading frame (ORF) of clones DvLGIC/GluCl1, DvLGIC/GluCl 11, DvLGIC/GluCl 7-1 and DvLGIC/GluCl 10-2. Amplified ORFs which contained the flanking T7 promoter and polyA^+ tail were used directly as templates in the in vitro transcription reaction (mMessage mMachine™, Ambion, Austin, Tex.). After removal of DNA template, the volume was adjusted to 100 μl with nuclease free water, and RNA purified using a G-50 Sephadex Column (Boehringer Mannheim, Indianapolis, Ind.). The elutate was extracted with an equal volume of phenol/chloroform, followed with a second chloroform extraction, precipitated with isopropyl alcohol, and resuspended in nuclease-free water to a storage concentration of 1 μg/μl.
(§2) Xenopus laevis oocytes were prepared and injected using standard methods previously described [Arena, J. P., Liu, K. K., Paress, P. S. & Cully, D. F. Mol. Pharmacol. 40, 368-374 (1991); Arena, J. P., Liu, K. K., Paress, P. S., Schaeffer, J. M. & Cully, D. F., Mol. Brain Res. 15, 339-348 (1992)]. Adult female Xenopus laevis were anesthetized with 0.17% tricaine methanesulfonate and the ovaries were surgically removed and placed in a solution consisting of (mM): NaCl 82.5, KCl 2, MgCl2 1, HEPES 5, NaPyruvate 2.5, Penicillin G. 100,000 units/L, Streptomycin Sulfate 1000 mg/L, pH 7.5 (Mod. OR-2). Ovarian lobes were broken open, rinsed several times in Mod. OR-2, and incubated in 0.2% collagenase (Sigma, Type1) in Mod. OR-2 at room temperature with gentle shaking. After 1 hour the collagenase solution was renewed and the oocytes were incubated for an additional 30-90 min until approximately 50% of the oocytes were released from the ovaries. Stage V and VI oocytes were selected and placed in media containing (mM): NaCl 96, KCl 2, MgCl2 1, CaCl2 1.8, HEPES 5, NaPyruvate 2.5, theophylline 0.5, gentamicin […], pH 7.5 (ND-96) for 16-24 hours before injection. Oocytes were injected with 50 nl of DvLGIC/GluCl1 or DvLGIC/GluCl 7-1 RNA at a concentration of 0.2 mg/ml. Oocytes were incubated at 18° C. for 1-6 days in ND-96 before recording.
(§3) Recordings were made at room temperature in modified ND-96 consisting of (mM): NaCl 96, MgCl2 1, CaCl2 0.1, BaCl2 3.5, HEPES 5, pH 7.5. Oocytes were voltage clamped using a Dagan CA1 two microelectrode amplifier (Dagan Corporation, Minneapolis, Minn.) interfaced to a Macintosh 7100/80 computer. The current passing electrode was filled with 0.7 M KCl, 1.7 M KCitrate, and the voltage recording electrode was filled with 1 M KCl. Throughout the experiment oocytes were superfused with modified ND-96 (control solution) or with ND-96 containing potential channel activators and blockers at a rate of approximately 3 ml/min. Data were acquired at 100 Hz and filtered at 33.3 Hz using Pulse software from HEKA Elektronik (Lambrecht, Germany). All recordings were performed from a holding potential of either 0 or −30 mV.

DvLGIC/GluCl 7-1 = assay: Two-microelectrode voltage clamp of Xenopus oocytes injected with DvLGIC/GluCl 7-1 RNA
Excerpt: as §1, §2, §3

DvLGIC/GluCl 10-2 = DvLGIC/GluCl 10-2 expressed in Xenopus oocytes, current response; conditions: concentration not given
Excerpt: as §1
(§4) Xenopus laevis oocytes were prepared and injected using standard methods previously described [Arena, J. P., Liu, K. K., Paress, P. S. & Cully, D. F. Mol. Pharmacol. 40, 368-374 (1991); Arena, J. P., Liu, K. K., Paress, P. S., Schaeffer, J. M. & Cully, D. F., Mol. Brain Res. 15, 339-348 (1992)]. […]

DvLGIC/GluCl 11 = DvLGIC/GluCl 11 expressed in Xenopus oocytes, current response; conditions: concentration not given
Sequence of DvLGIC/GluCl 11 (as listed by the source): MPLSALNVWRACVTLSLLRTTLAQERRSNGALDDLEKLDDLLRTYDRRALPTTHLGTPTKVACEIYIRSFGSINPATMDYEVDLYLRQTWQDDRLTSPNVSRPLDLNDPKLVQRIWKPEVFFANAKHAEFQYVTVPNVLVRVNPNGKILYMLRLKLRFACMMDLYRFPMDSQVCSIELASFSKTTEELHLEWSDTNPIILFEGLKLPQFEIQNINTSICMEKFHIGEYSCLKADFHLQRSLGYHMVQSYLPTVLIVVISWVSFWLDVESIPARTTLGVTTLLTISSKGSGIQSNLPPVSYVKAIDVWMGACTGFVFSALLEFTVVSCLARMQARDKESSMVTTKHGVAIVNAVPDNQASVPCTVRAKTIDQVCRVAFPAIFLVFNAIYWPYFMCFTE
Excerpt: as §1, §4

[1] = 1 μM ivermectin phosphate, holding potential 0 or −30 mV
[2] = Xenopus oocytes, concentration not given
[3] = after 1 μM ivermectin phosphate

Row | Molecule | current in response to application (DvLGIC/GluCl 1; 1 mM glutamate) | current in response to application (DvLGIC/GluCl 7-1; 1 mM glutamate) | responsiveness of the channel to the substance (DvLGIC/GluCl 10-2) | current in response to application (DvLGIC/GluCl 1; [1]) | concentration at which current activation was maximal (DvLGIC/GluCl 1; Xenopus oocytes injected with DvLGIC/GluCl 1 mRNA, FIG. 9) [µM] | current in response to addition (DvLGIC/GluCl 1; [2]) | reversibility of current upon wash-out (DvLGIC/GluCl 1; [3]) | current in response to application (DvLGIC/GluCl 7-1; [1]) | concentration at which current activation was maximal (DvLGIC/GluCl 7-1; DvLGIC/GluCl 7-1 expressed in Xenopus oocytes, FIG. 10) [µM] | current in response to addition (DvLGIC/GluCl 7-1; [2]) | reversibility of current upon wash-out (DvLGIC/GluCl 7-1; [3]) | current in response to addition (DvLGIC/GluCl 11)
1 | N[C@@H](CCC(=O)O)C(=O)O [glutamate] | did not activate a current | did not activate a current | not responsive |  |  |  |  |  |  |  |  | 
2 | ivermectin phosphate |  |  | not responsive | slowly activating current | 1 | exhibit a current | irreversible | slowly activating current | ~1 | exhibit a current | irreversible | exhibit a current
